{"source": "patent US4791215A", "about": "“Derivatives of glutamic acid and aspartic acid” (priority 1984, dated 1988)", "key": {"[1]": {"system": "activity of analgesic drugs", "assay": "Hot-plate test, potentiation of analgesic drugs (Experiment 2)", "assay_type": "in vivo, rats", "description": "Experiment No. 2: Hot-plate test\nThe method is that described by Eddy et al. (J. Pharmac. Exp. Ther. 107, 385 (1953)).\nGroups of five male rats having a weight of about 150 g, and which have not fasted, are used.\nThe animals are placed on a metal plate on the bottom of a transparent cylinder, which is heated to 55°±1° C. by an azeotropic boiling mixture (acetone-ethyl formate 1:1).\nThe reaction time is defined as the interval which passes between the moment at which the animal is placed on the hot-plate and the moment at which it either licks its feet or tries to jump out of the cylinder. The control reaction time is measured 10 and 5 minutes before administration of the drugs and 10, 20, 30, 45, 60 and 90 minutes afterwards. The animals are left on the plate for a maximum period of 30 seconds.\nThe response to the administration of the product is considered positive if at least a doubling of the normal reaction time is seen. The results obtained are given in Tables 2a and 2b which record the groups treated, the doses administered and the stay times on the plate expressed as the number of positive responses over the number treated."}, "[2]": {"system": "intestinal transit of carbon", "assay": "Anti-spastic activity, vegetable carbon intestinal transit test", "assay_type": "in vivo, mice", "conditions": "Mus musculus, ip; read-out: antispastic activity ED50 (dose reducing intestinal transit of carbon by 50%)", "excerpt": "The anti-spastic activity which the present compounds exert on the entire digestive system is also notable. Measured in mice with the vegetable carbon test (rate of transit through the stomach and the intestine), this activity is illustrated in the following table.\nclaimed administered intraperitoneally in mice. Values\nexpressed as the ED 50 in mg/kg, that is the dose which\nreduces the intestinal transit of carbon by 50%"}, "[3]": {"system": "CCK-8 induced contraction of guinea pig gall bladder", "assay": "Anti-CCK activity on gall bladder strips in vitro", "conditions": "CCK-8 10 ng/ml", "how_it_was_run": "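CCK-8 at 10 ng/ml drove isometric contraction of guinea pig gall bladder strips held at 32 °C in oxygenated Krebs (O2/CO2 95:5). Antagonism was measured at graded compound concentrations and reported as ED50, in μg/ml, for 50% inhibition of the contraction.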"}, "[4]": {"system": "enkephalinamide (DALA) analgesia", "assay": "Potentiation of DALA (enkephalinamide) analgesia, i.c.v., Tail Flick Test (Experiment 4)", "assay_type": "in vivo, rats", "design": "scale not given here", "excerpt": "Experiment No. 4: Potentiation of the analgesic activities of enkephalins induced by some of the compounds of the invention. […]"}, "[5]": {"system": "tolerance induced by morphine", "assay": "Antagonism to development of tolerance to repeated morphine HCl, Tail Flick Test (Experiment 5)", "conditions": "compound 10 mg/kg + morphine 5 mg/kg i.p.", "procedure": "Experiment No. 5: Antagonism of several products of the invention to the development of tolerance induced in rats by the repeated administration of morphine HCl.\nSeveral of the compounds of the invention were examined to determine their possible capacity to antagonise the development of tolerance induced by morphine. Groups of 6 male rats having a weight of about 200-250 grams were used.\nAt intervals of 24 hours from the first treatment (time 0) each animal (except the control group treated physiologically) received 5 mg/kg of morphine hydrochloride i.p. together with 10 mg/kg i.p. of the compounds indicated (with the exception of the group treated solely with morphine).\nThe determination of the pain threshold was effected 15', 30', 45' and 60' from the treatment by the Tail Flick Test."}}}
{"smiles": "CCCN(CCC)C(=O)C(CCC(=O)O)NC(=O)c1cccc(C#N)c1", "note": "(centres unmarked) [Compound C-20]", "values": [{"measurement": "TOTAL positives", "setting": "[1]; ASA 100 + compound 5 mg/kg i.p.", "result": 12, "unit": "x/30"}, {"measurement": "positive responses over number treated", "setting": "[1]; ASA 100 + compound 5 mg/kg i.p., 10'", "result": "2/5"}, {"measurement": "positive responses over number treated", "setting": "[1]; ASA 100 + compound 5 mg/kg i.p., 20'", "result": "2/5"}, {"measurement": "positive responses over number treated", "setting": "[1]; ASA 100 + compound 5 mg/kg i.p., 30'", "result": "2/5"}, {"measurement": "positive responses over number treated", "setting": "[1]; ASA 100 + compound 5 mg/kg i.p., 45'", "result": "3/5"}, {"measurement": "positive responses over number treated", "setting": "[1]; ASA 100 + compound 5 mg/kg i.p., 60'", "result": "3/5"}, {"measurement": "positive responses over number treated", "setting": "[1]; ASA 100 + compound 5 mg/kg i.p., 90'", "result": "0/5"}, {"measurement": "TOTAL positives", "setting": "[1]; ASA 100 + compound 20 mg/kg i.p.", "result": 17, "unit": "x/30"}, {"measurement": "positive responses over number treated", "setting": "[1]; ASA 100 + compound 20 mg/kg i.p., 10'", "result": "1/5"}, {"measurement": "positive responses over number treated", "setting": "[1]; ASA 100 + compound 20 mg/kg i.p., 20'", "result": "3/5"}, {"measurement": "positive responses over number treated", "setting": "[1]; ASA 100 + compound 20 mg/kg i.p., 30'", "result": "3/5"}, {"measurement": "positive responses over number treated", "setting": "[1]; ASA 100 + compound 20 mg/kg i.p., 45'", "result": "3/5"}, {"measurement": "positive responses over number treated", "setting": "[1]; ASA 100 + compound 20 mg/kg i.p., 60'", "result": "4/5"}, {"measurement": "positive responses over number treated", "setting": "[1]; ASA 100 + compound 20 mg/kg i.p., 90'", "result": "3/5"}, {"measurement": "TOTAL positives", "setting": "[1]; ASA 100 + compound 50 mg/kg i.p.", "result": 22, "unit": "x/30"}, {"measurement": "positive responses over number treated", "setting": "[1]; ASA 100 + compound 50 mg/kg i.p., 10'", "result": "3/5"}, {"measurement": "positive responses over number treated", "setting": "[1]; ASA 100 + compound 50 mg/kg i.p., 20'", "result": "2/5"}, {"measurement": "positive responses over number treated", "setting": "[1]; ASA 100 + compound 50 mg/kg i.p., 30'", "result": "5/5"}, {"measurement": "positive responses over number treated", "setting": "[1]; ASA 100 + compound 50 mg/kg i.p., 45'", "result": "5/5"}, {"measurement": "positive responses over number treated", "setting": "[1]; ASA 100 + compound 50 mg/kg i.p., 60'", "result": "4/5"}, {"measurement": "positive responses over number treated", "setting": "[1]; ASA 100 + compound 50 mg/kg i.p., 90'", "result": "3/5"}, {"measurement": "effect on analgesic activity of propoxyphene", "setting": "[1]; compound 3 mg/kg i.p.", "result": "can double the analgesic activity of propoxyphene"}, {"measurement": "TOTAL positives", "setting": "[1]; propoxyphene 15 + compound 1 mg/kg i.p.", "result": 16, "unit": "x/30"}, {"measurement": "positive responses over number treated", "setting": "[1]; propoxyphene 15 + compound 1 mg/kg i.p., 10'", "result": "2/5"}, {"measurement": "positive responses over number treated", "setting": "[1]; propoxyphene 15 + compound 1 mg/kg i.p., 20'", "result": "2/5"}, {"measurement": "positive responses over number treated", "setting": "[1]; propoxyphene 15 + compound 1 mg/kg i.p., 30'", "result": "3/5"}, {"measurement": "positive responses over number treated", "setting": "[1]; propoxyphene 15 + compound 1 mg/kg i.p., 45'", "result": "3/5"}, {"measurement": "positive responses over number treated", "setting": "[1]; propoxyphene 15 + compound 1 mg/kg i.p., 60'", "result": "3/5"}, {"measurement": "positive responses over number treated", "setting": "[1]; propoxyphene 15 + compound 1 mg/kg i.p., 90'", "result": "3/5"}, {"measurement": "TOTAL positives", "setting": "[1]; propoxyphene 15 + compound 3 mg/kg i.p.", "result": 25, "unit": "x/30"}, {"measurement": "positive responses over number treated", "setting": "[1]; propoxyphene 15 + compound 3 mg/kg i.p., 10'", "result": "3/5"}, {"measurement": "positive responses over number treated", "setting": "[1]; propoxyphene 15 + compound 3 mg/kg i.p., 20'", "result": "5/5"}, {"measurement": "positive responses over number treated", "setting": "[1]; propoxyphene 15 + compound 3 mg/kg i.p., 30'", "result": "4/5"}, {"measurement": "positive responses over number treated", "setting": "[1]; propoxyphene 15 + compound 3 mg/kg i.p., 45'", "result": "5/5"}, {"measurement": "positive responses over number treated", "setting": "[1]; propoxyphene 15 + compound 3 mg/kg i.p., 60'", "result": "4/5"}, {"measurement": "positive responses over number treated", "setting": "[1]; propoxyphene 15 + compound 3 mg/kg i.p., 90'", "result": "4/5"}, {"measurement": "TOTAL positives", "setting": "[1]; propoxyphene 15 + compound 10 mg/kg i.p.", "result": 27, "unit": "x/30"}, {"measurement": "positive responses over number treated", "setting": "[1]; propoxyphene 15 + compound 10 mg/kg i.p., 10'", "result": "4/5"}, {"measurement": "positive responses over number treated", "setting": "[1]; propoxyphene 15 + compound 10 mg/kg i.p., 20'", "result": "5/5"}, {"measurement": "positive responses over number treated", "setting": "[1]; propoxyphene 15 + compound 10 mg/kg i.p., 30'", "result": "5/5"}, {"measurement": "positive responses over number treated", "setting": "[1]; propoxyphene 15 + compound 10 mg/kg i.p., 45'", "result": "5/5"}, {"measurement": "positive responses over number treated", "setting": "[1]; propoxyphene 15 + compound 10 mg/kg i.p., 60'", "result": "5/5"}, {"measurement": "positive responses over number treated", "setting": "[1]; propoxyphene 15 + compound 10 mg/kg i.p., 90'", "result": "3/5"}, {"measurement": "dose of maximum effect (propoxyphene potentiation)", "setting": "[1]; with propoxyphene", "result": 10, "unit": "mg/kg i.p."}, {"measurement": "ED50", "setting": "[2]", "result": 77.5, "unit": "mg/kg"}, {"measurement": "ED50 (concentration antagonising 50% of contracting effect of CCK-8)", "setting": "[3]", "result": "> 200", "unit": "µg/mL"}, {"measurement": "analgesic activity, Tail Flick", "setting": "[4]; DALA 10 + compound 0.003 μg/kg ICV, 10'", "result": 5.7}, {"measurement": "analgesic activity, Tail Flick", "setting": "[4]; DALA 10 + compound 0.003 μg/kg ICV, 20'", "result": 44.6}, {"measurement": "analgesic activity, Tail Flick", "setting": "[4]; DALA 10 + compound 0.003 μg/kg ICV, 30'", "result": 32.3}, {"measurement": "analgesic activity, Tail Flick", "setting": "[4]; DALA 10 + compound 0.003 μg/kg ICV, 45'", "result": 30.1}, {"measurement": "analgesic activity, Tail Flick", "setting": "[4]; DALA 10 + compound 0.003 μg/kg ICV, 60'", "result": 24.5}, {"measurement": "analgesic activity, Tail Flick", "setting": "[4]; DALA 10 + compound 0.003 μg/kg ICV, 90'", "result": "72."}, {"measurement": "MEAN analgesic activity, Tail Flick", "setting": "[4]; DALA 10 + compound 0.003 μg/kg ICV", "result": 24.1}, {"measurement": "analgesic activity, Tail Flick", "setting": "[4]; DALA 10 + compound 0.01 μg/kg ICV, 10'", "result": 16.5}, {"measurement": "analgesic activity, Tail Flick", "setting": "[4]; DALA 10 + compound 0.01 μg/kg ICV, 20'", "result": 62.5}, {"measurement": "analgesic activity, Tail Flick", "setting": "[4]; DALA 10 + compound 0.01 μg/kg ICV, 30'", "result": 64.1}, {"measurement": "analgesic activity, Tail Flick", "setting": "[4]; DALA 10 + compound 0.01 μg/kg ICV, 45'", "result": 45.4}, {"measurement": "analgesic activity, Tail Flick", "setting": "[4]; DALA 10 + compound 0.01 μg/kg ICV, 60'", "result": 45.3}, {"measurement": "analgesic activity, Tail Flick", "setting": "[4]; DALA 10 + compound 0.01 μg/kg ICV, 90'", "result": 16.3}, {"measurement": "MEAN analgesic activity, Tail Flick", "setting": "[4]; DALA 10 + compound 0.01 μg/kg ICV", "result": 41.7}, {"measurement": "percentage variation in latency time (Effect %)", "setting": "[5]; 24 h", "result": 53.36, "unit": "%"}, {"measurement": "percentage variation in latency time (Effect %)", "setting": "[5]; 48 h", "result": 48.17, "unit": "%"}, {"measurement": "percentage variation in latency time (Effect %)", "setting": "[5]; 72 h", "result": 53.67, "unit": "%"}, {"measurement": "percentage variation in latency time (Effect %)", "setting": "[5]; 96 h", "result": 31.56, "unit": "%"}, {"measurement": "percentage variation in latency time (Effect %)", "setting": "[5]; 120 h", "result": 41.67, "unit": "%"}, {"measurement": "percentage variation in latency time (Effect %)", "setting": "[5]; 144 h", "result": 14.48, "unit": "%"}, {"measurement": "percentage variation in latency time (Effect %)", "setting": "[5]; 168 h", "result": 13.75, "unit": "%"}, {"measurement": "percentage variation in latency time (Effect %)", "setting": "[5]; time 0", "result": 72.15, "unit": "%"}]}
